Source: US10703764B2, “Benzopiperazine compositions as BET bromodomain inhibitors” (FORMA Therapeutics, Inc., priority 2013, dated 2020)

What was measured:
BRD4 BD1 = target: T1, BRD4 BD1 (Homo sapiens, UniProt O60885); assay: AlphaScreen binding assay, BRD4 Bromodomain 1
T1 construct: made in house
Summary of the method: (§1)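 An AlphaScreen competition format was used with His-BRD4 BD1 or BD2 and biotin-H4 K5/8/12/16-acetyl peptide, each at matched final levels of 50 nM (BD1) or 100 nM (BD2). Incubation in HEPES/NaCl buffer with 0.1% BSA and 0.01% Triton X-100 ran ≥1 h before IC50 determination.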

BRD4 BD2 = target: T2, BRD4 BD2 (Homo sapiens, UniProt O60885); assay: AlphaScreen binding assay, BRD4 Bromodomain 2
T2 construct: made in house
Summary of the method: as §1

MV4-11 cells = assay: Oncology cell growth assay (3-day proliferation, CellTiter-Glo); type: cell-based; details: Homo sapiens, MV4-11, 72 h, AML cell line MV4-11, 72 hours, compounds grouped by IC50 range, read-out: MV4-11 IC50 (inhibition of proliferation, gIC50)
Procedure: The impact of Example compounds on cancer cell proliferation was determined using the acute myelocytic leukemia (AML) cell line MV4-11 (ATCC) in a 3-day proliferation assay. MV4-11 cells were maintained in RPMI 1640 media supplemented with 10% FBS at 37° C. and an atmosphere of 5% CO2. For compound testing, compound dilutions series were prepared in DMSO via a 3-fold serial dilution from 2 mM to 0.001 mM in 384-well white flat bottom plates. The final compound concentrations in the wells were 10, 3.3, 1.1, 0.37, 0.12, 0.041, 0.013 and 0.0045 μM. MV4-11 cells were plated at a density of 3000 cells/well in final volume of 50 μl culture media and incubated for 72 hours. […] Luminescent signal from the CellTiter-Glo assay was read on an EnVision multilabel plate reader (PerkinElmer). Values for the concentration that inhibited cell growth by 50% (gIC50) between the DMSO control and background control (no cells) were determined using IDBS Activity Base software with a four parameter logistic curve fit by the equation y=A+((B−A)/(1+((C/x)^D))), wherein A denotes the bottom plateau of the curve, B denotes the top plateau of the curve, C denotes the x value at the middle of the curve, D denotes the slope factor, x denotes the original known x values, and y denotes the original known y values. Data was fitted using the Levenburg Marquardt algorithm.

| SMILES | IC50 (BRD4 BD1) [nM] | IC50 (BRD4 BD2) [nM] | IC50 (MV4-11 cells) [nM] |
| --- | --- | --- | --- |
| COc1ccccc1OC(=O)N1C[C@H](C)N(C(C)=O)c2ccc(-c3ccc(S(C)(=O)=O)cc3)cc21 [Example I-227] | 100 to 1000 | < 50 | < 100 |
| CC(=O)N1c2ccc(-c3cnn(CC4CCOCC4)c3)cc2N(C(=O)C2CC2)C[C@@H]1C [Example I-657] | 100 to 1000 | 50 to 500 | 100 to 500 |
| CC(=O)N1c2ccc(-c3cnn(C4CS(=O)(=O)C4)c3)cc2N(C(=O)OC2CCCC2)C[C@@H]1C [Example I-1307] | 100 to 1000 | < 50 | 100 to 500 |
| CCOC(=O)N1C[C@H](C)N(C(C)=O)c2ccc(-c3ccc(S(=O)(=O)NC)cc3)cc21 [Example I-1121] | 1000 to 10000 | 50 to 500 | 100 to 500 |
| CC(=O)N1c2ccc(-c3cccc(S(=O)(=O)N(C)C)c3)cc2N(C(=O)C2CCC2)C[C@@H]1C [Example I-1047] | 1000 to 10000 | 50 to 500 | > 500 |
| CC(=O)N1c2ccc(-c3ccc(S(C)(=O)=O)cc3)cc2N(C(=O)Oc2ccc3ccccc3c2)C[C@@H]1C [Example I-239] | 1000 to 10000 | < 50 | 100 to 500 |
| CC(=O)N1c2ccc(-c3ccc(S(N)(=O)=O)c(F)c3)cc2N(C(=O)OC(C)C)C[C@@H]1C [Example I-1298] | 1000 to 10000 | 50 to 500 | > 500 |
| CCS(=O)(=O)Nc1cccc(-c2ccc3c(c2)N(C(=O)OC2CCOCC2)C[C@H](C)N3C(C)=O)c1 [Example I-1228] | 100 to 1000 | 50 to 500 | 100 to 500 |
| CC(=O)N1c2ccc(-c3ccc(C(=O)NCCO)cc3)cc2N(C(=O)c2ccco2)C[C@@H]1C [Example I-290] | 1000 to 10000 | < 50 | 100 to 500 |
| CC(=O)N1c2ccc(-c3cnn(C4COC4)c3)cc2N(C(=O)OCC(C)(C)F)C[C@@H]1C [Example I-77, (S)-2-fluoro-2-methylpropyl 4-acetyl-3-methyl-7-(1-(oxetan-3-yl)-1H-pyrazol-4-yl)-3,4-dihydroquinoxaline-1(2H)-carboxylate] | < 100 | < 50 | 100 to 500 |
| CCOC(=O)N1C[C@H](C)N(C(C)=O)c2ccc(-c3ccc(S(=O)(=O)NC(C)(C)C)cc3)cc21 [Example I-1129] | 1000 to 10000 | 50 to 500 | 100 to 500 |
| CC(=O)N1c2ccc(-c3cccc(-n4nc(C)cc4C)c3)cc2N(C(=O)c2ccco2)C[C@@H]1C [Example I-857] | 100 to 1000 | < 50 | > 500 |
| CC(=O)N1c2ccc(-c3cccc(S(=O)(=O)N(C)C)c3)cc2N(C(=O)C2CC2)C[C@@H]1C [Example I-1046] | 1000 to 10000 | 50 to 500 | > 500 |
| CCS(=O)(=O)c1cccc(-c2ccc3c(c2)N(C(=O)OC2CCCCC2)C[C@H](C)N3C(C)=O)c1 [Example I-1245] | 100 to 1000 | 50 to 500 | 100 to 500 |
| CNS(=O)(=O)c1cccc(-c2ccc3c(c2)N(C(=O)OC2CCOCC2)C[C@H](C)N3C(C)=O)c1 [Example I-1254] | 100 to 1000 | 50 to 500 | < 100 |
| CC(C)OC(=O)N1C[C@H](C)N(C(=O)C2CC2)c2ccc(-c3cnn(C[C@@H]4CCNC4)c3)cc21 [Example I-689] | 100 to 1000 | 50 to 500 | > 500 |
| COc1cc(F)ccc1OC(=O)N1C[C@H](C)N(C(C)=O)c2ccc(-c3cnn(C4CC4)c3)cc21 [Example I-1186] | 100 to 1000 | < 50 | 100 to 500 |

| SMILES | IC50 (BRD4 BD1) [nM] | IC50 (BRD4 BD2) [nM] | IC50 (MV4-11 cells) [nM] |
| --- | --- | --- | --- |
| CC(=O)N1c2ccc(-c3cccc(S(C)(=O)=O)c3)cc2N(C(=O)OC2CCCCC2)C[C@@H]1C [Example I-1225] | 100 to 1000 | 50 to 500 | 100 to 500 |
| CC(=O)N1c2ccc(-c3cnn(CC4(F)COC4)c3)cc2N(C(=O)OC(C)C)C[C@@H]1C [Example I-133, (S)-isopropyl 4-acetyl-7-(1-((3-fluorooxetan-3-yl)methyl)-1H-pyrazol-4-yl)-3-methyl-3,4-dihydroquinoxaline-1(2H)-carboxylate] | 100 to 1000 | 50 to 500 | 100 to 500 |
| CNC(=O)Nc1cc2c(cc1-c1cnn(C3CC3)c1)N(C(=O)OC(C)C)C[C@H](C)N2C(C)=O [Example I-215, Isopropyl (S)-4-acetyl-7-(1-cyclopropyl-1H-pyrazol-4-yl)-3-methyl-6-(3-methylureido)-3,4-dihydroquinoxaline-1(2H)-carboxylate] | 100 to 1000 | 50 to 500 | 100 to 500 |
| CC(C)OC(=O)N1C[C@H](C)N(C(=O)C2CC2)c2ccc(-c3cnn(CCS(C)(=O)=O)c3)cc21 [Example I-309] | 100 to 1000 | 50 to 500 | > 500 |
| CC(=O)N1c2ccc(-c3cnn(C4CC4)c3)cc2N(C(=O)OC2CCOCC2)C[C@@H]1C [Example I-1000] | < 100 | 50 to 500 | 100 to 500 |
| CC(=O)N1c2ccc(-c3ccc(N(C)C)cc3)cc2N(C(=O)c2ccco2)C[C@@H]1C [Example I-871] | 100 to 1000 | < 50 | 100 to 500 |
| CCOC(=O)N1C[C@H](C)N(C(C)=O)c2ccc(-c3ccc(S(=O)(=O)C(C)C)cc3)cc21 [Example I-1064] | 1000 to 10000 | 50 to 500 | > 500 |
| CC(=O)N1c2ccc(-c3cnn([C@@H]4CCCS(=O)(=O)C4)c3)cc2N(C(=O)OCC2CC2)C[C@@H]1C [Example I-171, cyclopropylmethyl (3S)-4-acetyl-7-{1-[(3R)-1,1-dioxo-1λ^6-thian-3-yl]-1H-pyrazol-4-yl}-3-methyl-1,2,3,4-tetrahydroquinoxaline-1-carboxylate] | 100 to 1000 | – | > 500 |
| CC(=O)N1c2ccc(-c3cnn(C4CCS(=O)(=O)CC4)c3)cc2N(C(=O)OC(C)C)C[C@@H]1C [Example I-156, propan-2-yl (3S)-4-acetyl-7-[1-(1,1-dioxo-1λ^6-thian-4-yl)-1H-pyrazol-4-yl]-3-methyl-1,2,3,4-tetrahydroquinoxaline-1-carboxylate] | 100 to 1000 | – | > 500 |
| CC(C)OC(=O)N1C[C@H](C)N(C(=O)C2CC2)c2ccc(-c3ccc(C(=O)N(C)CC(=O)N(C)C)cc3)cc21 [Example I-560] | 100 to 1000 | – | 100 to 500 |
| CC(=O)N1c2ccc(-c3cnn(C4CCNC(=O)C4)c3)cc2N(C(=O)C2CC2)C[C@@H]1C (stereo partly drawn) [Example I-167, 4-{4-[(2S)-1-acetyl-4-cyclopropanecarbonyl-2-methyl-1,2,3,4-tetrahydroquinoxalin-6-yl]-1H-pyrazol-1-yl}piperidin-2-one] | 100 to 1000 | – | 100 to 500 |
| CC(=O)N1c2ccc(-c3cnn(C4CCNC(=O)C4)c3)cc2N(C(=O)OC(C)C)C[C@@H]1C (stereo partly drawn) [Example I-166, propan-2-yl (3S)-4-acetyl-3-methyl-7-[1-(2-oxopiperidin-4-yl)-1H-pyrazol-4-yl]-1,2,3,4-tetrahydroquinoxaline-1-carboxylate] | 100 to 1000 | – | 100 to 500 |
| CC(=O)N1c2ccc(-c3cnn(C4CCS(=O)(=O)CC4)c3)cc2N(C(=O)OC2CCC2)C[C@@H]1C [Example I-154, cyclobutyl (3S)-4-acetyl-7-[1-(1,1-dioxo-1λ^6-thian-4-yl)-1H-pyrazol-4-yl]-3-methyl-1,2,3,4-tetrahydroquinoxaline-1-carboxylate] | < 100 | – | < 100 |
| CC(=O)N1c2ccc(-c3cnn(C4CN[C@H]4C)c3)cc2N(C(=O)OC2CCC2)C[C@@H]1C (stereo partly drawn) [Example I-178, cyclobutyl (3S)-4-acetyl-3-methyl-7-{1-[(2S)-2-methylazetidin-3-yl]-1H-pyrazol-4-yl}-1,2,3,4-tetrahydroquinoxaline-1-carboxylate] | 100 to 1000 | – | 100 to 500 |
| CC(=O)N1c2ccc(-c3cnn(C4CCS(=O)(=O)CC4)c3)cc2N(C(=O)OCC2CC2)C[C@@H]1C [Example I-169, cyclopropylmethyl (3S)-4-acetyl-7-[1-(1,1-dioxo-1λ^6-thian-4-yl)-1H-pyrazol-4-yl]-3-methyl-1,2,3,4-tetrahydroquinoxaline-1-carboxylate] | 100 to 1000 | – | > 500 |
| CC(=O)N1c2ccc(-c3cnn(C4CN[C@H]4C)c3)cc2N(C(=O)OC(C)C)C[C@@H]1C (stereo partly drawn) [Example I-159, propan-2-yl (3S)-4-acetyl-3-methyl-7-{1-[(2S)-2-methylazetidin-3-yl]-1H-pyrazol-4-yl}-1,2,3,4-tetrahydroquinoxaline-1-carboxylate] | 100 to 1000 | – | < 100 |
| CC(=O)N1c2ccc(-c3cnn([C@H]4CCCS(=O)(=O)C4)c3)cc2N(C(=O)OCC2CC2)C[C@@H]1C [Example I-172, cyclopropylmethyl (3S)-4-acetyl-7-{1-[(3S)-1,1-dioxo-1λ^6-thian-3-yl]-1H-pyrazol-4-yl}-3-methyl-1,2,3,4-tetrahydroquinoxaline-1-carboxylate] | 100 to 1000 | – | > 500 |
